The subject of one data set is SK-CO-1 cells. In words: SK-CO-1 CTG proliferation assay (120 h) (CRC, G12V). The data set is classed as cell-based. To be noted: Homo sapiens. On the procedure:
SK-CO-1 cells (ATCC HTB-39) are dispensed into 384-well plates, flat and clear bottom (Greiner, PNr. 781091) at a density of 500 cells per well in 60 μL EMEM (Sigma M5650)+10% Fetal Calf Serum (HyClone, PNr.: SH30084.03) and incubated at 37° C. in a CO2 incubator overnight. The next day, compounds (10 mM stock in DMSO) are added with the ECHO acoustic liquid handler system (Beckman Coulter), including DMSO controls. Plates are incubated for 120 h, and cell viability is measured using CellTiter-Glo luminescent cell viability reagent (Promega product code G7570). Viability (stated as percent of control) is defined as relative luminescence units RLU of each well divided by the RLU of cells in DMSO controls.

Data set [1] is described as follows: Metabolic (microsomal) stability assay, human liver microsomes (HLM). The data set is classed as in vitro ADME. To be noted: 1 μM, predicted clearance as percent of liver blood flow. On the procedure:
The metabolic degradation of the test compound is assayed at 37° C. with pooled liver microsomes (mouse (MLM), rat (RLM) or human (HLM)). The final incubation volume of 48 μL per time point contains TRIS buffer (pH 7.5; 0.1 M), magnesium chloride (6.5 mM), microsomal protein (0.5 mg/mL for mouse/rat, 1 mg/mL for human specimens) and the test compound at a final concentration of 1 μM. Following a short preincubation period at 37° C., the reactions are initiated by addition of 12 μL beta-nicotinamide adenine dinucleotide phosphate, reduced form (NADPH, 10 mM) and terminated by transferring an aliquot into solvent after different time points (0, 5, 15, 30, 60 min). Additionally, the NADPH-independent degradation is monitored in incubations without NADPH, terminated at the last time point by addition of acetonitrile. The quenched incubations are pelleted by centrifugation (4,000 rpm, 15 min). An aliquot of the supernatant is assayed by LC-MS/MS to quantify the concentration of parent compound in the individual samples.
In vitro intrinsic clearance (CLint, in vitro) is calculated from the time course of the disappearance of the test drug during the microsomal incubation. Each plot is fitted to the first-order elimination rate constant as C(t)=C0*exp(−ke*t), where C(t) and C0 are the concentration of unchanged test drug at incubation time t and that at preincubation and ke is the disappearance rate constant of the unchanged drug. Subsequently, CLint, in vitro (μL min^−1·amount protein) values are converted to predicted CLint, in vitro (mL min^−1·kg^−1) from incubation parameters according to the equation CLint, in vitro=CLint, in vitro×(incubation volume (ml)/amount protein (mg))×(amount protein (mg)/g liver tissue)×(liver weight/body wt.). For better across species comparison the predicted clearance is expressed as percent of the liver blood flow [% QH](mL min^−1·kg^−1) in the individual species. In general, high stability (corresponding to low % QH) of the compounds across species is desired.

For a further data set, the system named is AsPC-1 cells. In words: AsPC-1 CTG proliferation assay (120 h) (pancreatic cancer, G12D). The data set is classed as cell-based. To be noted: Homo sapiens, ASPC1. On the procedure: The CTG assay is designed to measure quantitatively the proliferation of AsPC-1 cells (ATCC CRL-5985), using the CellTiter Glow Assay Kit (Promega G7571). Cells are grown in RPMI medium (ATCC) supplemented with Fetal Calf Serum (Life Technologies, Gibco BRL, Cat. No. 10270-106). On “day 0” 2000 AsPC-1 cells are seeded in 60 μL RPMI ATCC+10% FCS+ Penstrep in a 384-well plate, flat and clear bottom (Greiner, PNr. 781091). Cells are then incubated in the plates at 37° C. in a CO2 incubator overnight. On day 1, compounds (10 mM stock in DMSO) are added with the ECHO acoustic liquid handler system (Beckman Coulter), including DMSO controls. Plates are incubated for 120 h, and cell viability is measured using CellTiter-Glo luminescent cell viability reagent (Promega product code G7570). Viability (stated as percent of control) is defined as relative luminescence units RLU of each well divided by the RLU of cells in DMSO controls.

The target in the next data set is KRAS G12D Ba/F3 (Homo sapiens, UniProt P01116, G12D, cells depend on it). In words: Ba/F3 proliferation assay, KRAS G12D. To be noted: 72 h, AlamarBlue, read-out: KRAS G12D Ba/F3 IC50. The format is cell-based. How it is done: (§1) Plasmids containing KRASG12 mutants(i.e. G12D, G12C, G12V) are obtained from GeneScript. To generate KRASG12-dependent Ba/F3 models, Ba/F3 cells are transduced with retroviruses containing vectors that harbor KRASG12 isoforms. Platinum-E cells (Cell Biolabs) are used for retrovirus packaging. Retrovirus is added to Ba/F3 cells. To ensure infection, 4 μg/mL polybrene is added and cells are spinfected. […] Cells with an infection efficiency of 10% to 20% are further cultivated and puromycin selection with 1 μg/mL is initiated. As a control, parental Ba/F3 cells are used to show selection status. Selection is considered successful when parental Ba/F3 cells cultures died. To evaluate the transforming potential of KRASG12 mutations, the growth medium is no longer supplemented with IL-3. Ba/F3 cells harboring the empty vector are used as a control. Approximately ten days before conducting the experiments, puromycin is left out.
KRAS G12D Ba/F3, sequence (P01116 whole entry G12D, canonical isoform): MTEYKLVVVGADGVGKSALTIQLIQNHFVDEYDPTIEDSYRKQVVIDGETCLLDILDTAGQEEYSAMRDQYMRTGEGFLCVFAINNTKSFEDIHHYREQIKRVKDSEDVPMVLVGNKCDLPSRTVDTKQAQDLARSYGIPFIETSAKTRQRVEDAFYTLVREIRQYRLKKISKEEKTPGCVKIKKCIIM
(§2) Compounds are added using an Access Labcyte Workstation with a Labcyte Echo 550 or 555 accoustic dispenser. All treatments are performed in technical duplicates. […] AlamarBlue™ (ThermoFisher), a viability stain, is added and fluorescence measured in the PerkinElmer Envision HTS Multilabel Reader. The raw data are imported into and analyzed with the Boehringer Ingelheim proprietary software MegaLab (curve fitting based on the program PRISM, GraphPad Inc.).

The nature of data set [2]: Solubility measurement (DMSO solution precipitation method). The format is physicochemical. To be noted: aqueous buffer, kinetic from dmso stock. On the procedure: The DMSO solution is diluted with an aqueous medium (McIlvaine buffer with pH=4.5 or 6.8) to a final concentration of 250 μM. After 24 h of shaking at ambient temperature a potentially formed precipitate is removed by filtration. The concentration of the test compound in the filtrate is determined by LC-UV methods by calibrating the signal to the signal of a reference solution with complete dissolution of the test compound in acetonitrile/water (1:1) with known concentration.

For a further data set, the target named is KRAS G12V Ba/F3 (Homo sapiens, UniProt P01116, G12V, cells depend on it). In words: Ba/F3 proliferation assay, KRAS G12V. The format is cell-based. To be noted: 72 h, AlamarBlue, read-out: KRAS G12V Ba/F3 IC50. How it is done: as §1, §2
KRAS G12V Ba/F3, sequence (P01116 whole entry G12V): as the sequence (P01116 whole entry G12D, canonical isoform) above, with D12V counted along it
For orientation: Resazurin is reduced to fluorescent resorufin, in cell work by metabolically active cells.

Setting [3] is: McIlvaine buffer pH 4.5, 24 h, read-out: Solubility [μg/ml] pH 4.5.
Where [4] appears, read: McIlvaine buffer pH 6.8, 24 h, read-out: Solubility [μg/ml] pH 6.8.

This is an account of results in US20250129095A1, “ANNULATED 2-AMINO-3-CYANO THIOPHENES AND DERIVATIVES FOR THE TREATMENT OF CANCER” (Boehringer Ingelheim Int'l GmbH Corp., priority 2021, published 2025).

Where two headings read alike, the source gives them in different places. Where only a bound is given, the exact number is not on record here.

One may read the IC50 as the concentration that gives 50% inhibition. A higher IC50 goes with lower potency.

Turning to `C[C@H](Oc1cc(O[C@H]2CN(C)C(C)(C)C2)nc(-c2noc3c2CCC[C@@]32CCCc3sc(N)c(C#N)c32)n1)[C@@H]1CCCN1C` [II-19], the IC50 in the data set on SK-CO-1 cells stood at 933 nM; in the data set on AsPC-1 cells it was 1420 nM. In data set [1], the “HLM QH [%]” value is <24%. Besides, the GI50 at KRAS G12D Ba/F3 was determined as 91 nM; on KRAS G12V Ba/F3, 151 nM. For the same compound, the solubility at 24 h in data set [2] (setting [3]) is > 161 µg/mL; in data set [2] (setting [4]) it was > 164 µg/mL.
For the compound `C[C@H](Oc1cc(N(C)CCN(C)C)nc(-c2noc3c2CCC[C@@]32CCCc3sc(N)c(C#N)c32)n1)[C@@H]1CCCN1C` [II-20], the IC50 in the data set with SK-CO-1 cells came to 900 nM; in the data set with AsPC-1 cells, 3580 nM. Besides, the “HLM QH [%]” value in data set [1] was <24%. Besides, the GI50 at KRAS G12D Ba/F3 was 304 nM; at KRAS G12V Ba/F3 it was 303 nM. For the same compound, the figures for the solubility at 24 h in data set [2] (setting [3]) and in data set [2] (setting [4]) were > 144 µg/mL and > 142 µg/mL, respectively.
Turning to `C[C@H](Oc1cc(OCC2(N(C)C)CC2)nc(-c2noc3c2CCC[C@@]32CCCc3sc(N)c(C#N)c32)n1)[C@@H]1CCCN1C` [II-21], the IC50 with SK-CO-1 cells is 977 nM; in the data set with AsPC-1 cells, 277 nM. Moreover, in data set [1], the “HLM QH [%]” value was 48%. Further, the GI50 on KRAS G12D Ba/F3 came out at 22 nM; at KRAS G12V Ba/F3, 237 nM. The solubility at 24 h in data set [2] (setting [3]) was > 143 µg/mL; in data set [2] (setting [4]), > 126 µg/mL.
`C[C@H](Oc1cc(OCC2(N(C)C)COC2)nc(-c2noc3c2CCC[C@@]32CCCc3sc(N)c(C#N)c32)n1)[C@@H]1CCCN1C` [II-22]: the concentration for half-maximal inhibition (IC50) was 354 nM in the data set with SK-CO-1 cells and 298 nM with AsPC-1 cells. Moreover, the “HLM QH [%]” value in data set [1] was 53%. Also, the GI50 at KRAS G12D Ba/F3 came out at 6 nM; on KRAS G12V Ba/F3, 35 nM. Moreover, the solubility at 24 h is > 168 µg/mL in data set [2] (setting [3]) and > 157 µg/mL in data set [2] (setting [4]).
`COc1c(OCC2(N(C)C)COC2)nc(-c2noc3c2CCC[C@@]32CCCc3sc(N)c(C#N)c32)nc1O[C@@H](C)[C@@H]1CCCN1C` [II-25]: the IC50 with SK-CO-1 cells was determined as 326 nM; with AsPC-1 cells, 571 nM. In addition, the “HLM QH [%]” value in data set [1] is reported as 46%. Also, the GI50 came out at 15 nM at KRAS G12D Ba/F3 and 137 nM at KRAS G12V Ba/F3. Moreover, the solubility at 24 h in data set [2] (setting [3]) was > 163 µg/mL; in data set [2] (setting [4]), > 152 µg/mL.
In the case of `C[C@H]1CN(C)CCCN1c1cc(O[C@@H]2CNC2(C)C)nc(-c2noc3c2CCC[C@@]32CCCc3sc(N)c(C#N)c32)n1` [II-28], the IC50 turned out to be 2590 nM in the data set with SK-CO-1 cells and 443 nM in the data set on AsPC-1 cells. In addition, the “HLM QH [%]” value in data set [1] was 26%. Moreover, the GI50 turned out to be 130 nM on KRAS G12D Ba/F3 and 2040 nM on KRAS G12V Ba/F3. In addition, the solubility at 24 h in data set [2] (setting [3]) is > 151 µg/mL; in data set [2] (setting [4]) it was > 146 µg/mL.
`CO[C@@H]1C[C@@H]([C@H](C)Oc2cc(O[C@@H]3CNC3(C)C)nc(-c3noc4c3CCC[C@@]43CCCc4sc(N)c(C#N)c43)n2)N(C)C1` [II-30]: the IC50 in the data set with SK-CO-1 cells came to 260 nM; with AsPC-1 cells, 36 nM. Further, the “HLM QH [%]” value in data set [1] was 37%. Further, the GI50 on KRAS G12D Ba/F3 was 5 nM; at KRAS G12V Ba/F3, 297 nM. Besides, the values for the solubility at 24 h in data set [2] (setting [3]) and in data set [2] (setting [4]) were > 171 µg/mL and > 165 µg/mL, respectively.
On to `C[C@H](Oc1cc(O[C@@H]2CNC2(C)C)nc(-c2noc3c2CCC[C@@]32CCCc3sc(N)c(C#N)c32)n1)[C@@H]1C[C@@H](F)CN1C` [II-31], for which the half-maximal inhibitory concentration (IC50) in the data set on SK-CO-1 cells was 394 nM; in the data set on AsPC-1 cells, 25 nM. Moreover, in data set [1], the “HLM QH [%]” value is listed as 37%. Also, the GI50 at KRAS G12D Ba/F3 turned out to be 3 nM; at KRAS G12V Ba/F3, 230 nM. For the same compound, the solubility at 24 h in data set [2] (setting [3]) is > 157 µg/mL; in data set [2] (setting [4]) it was > 143 µg/mL.
